Reference: US20100256217A1, “ANTIVIRAL INHIBITION OF CASEIN KINASE II” (The Trustees of the University of Pennsylvania, priority 2006, published 2010)
“Also recorded” adds a separate entry of the source.

Key:
[1] = test system: capsid-containing VLPs; assay: ELISA of capsid from culture fluid (secretion of capsid-containing VLPs); type: cell-based; details: DRB added to culture medium; anti-C ELISA
Text: Quantification of the protein C in ELISA from the supernatants of transfected cells. The ability of unprocessed and truncated capsid proteins to participate in the budding was assed by ELISA from culture fluid of transfected cells. In 6 cm plates, the cells were transfected with full-length capsid (123 aa) or truncated capsid (105 aa) or C(S36A) plasmids or in combination with WNV M and E-expressing constructs. Forty eight hours post-transfection, the supernatants were collected and analyzed for viral budding. One hundred microliters of supernatants were plated in triplicate, in a serial dilution series (dilutions in carbonate bicarbonate buffer) on a high protein binding EIA/RIA 96 well plate (Costar) and incubated at 4° C. overnight. In addition to the supernatants from experimental samples, a mock-transfected and untransfected media control is also added to the assay samples. Moreover, a series of wells are used as negative controls for the assay in that no supernatant is added to these wells only carbonate bicarbonate buffer. After 3 washes with PBS, nonspecific binding sites are blocked with 3% BSA in PBS solution, for 2 hours at room temperature. […] The reaction is terminated by adding 4N H2SO4 and protein levels are measured using an ELISA reader (Molecular Diagnostics) at 450 nm. […]

[2] = test system: WNV; assay: WNV release from infected 293 cells, ELISA with anti-E antibody; type: cell-based, West Nile virus; details: 4 MOI, 48 h post infection
Text: FIG. 6 includes panels A and B. Both reduced CK2 activity and depletion of CK2 transcripts affects viral release. FIG. 6 panel A: Depletion of CK2 transcripts reduced viral replication. As described earlier, the cells were transfected with full-length infectious clone along with siRNA-CK2α and siRNA-CK2β molecules. Lane 1 depicts the amount of viral release from the plates that were not treated with any of siRNA molecules. […] FIG. 6 panel B: Effect of cell-permeable CK2-inhibitor on viral release. 293 cells were infected with infectious WNV samples, propagated from an infectious clone of WNV.
In the context of whole virus, we examined whether inhibition of cellular CK2 affects WN viral release. We generated high titer of viral sample from Vero cells transfected with full length infectious clone (Pierson et al 2005). We harvested culture fluid at regular intervals, determined viral titre by routine Plaque assays and used them for infection assays. […] Forty-eight hours post infection, viral release was monitored by both plaque assays as well as ELISAs measuring the presence of […] using monoclonal anti E antibody. FIG. 6B depicts the release of viral molecules from WNV-infected cells as measured by ELISA using anti-E antibody. […] While the inhibition of cellular CK2 activity results in the reduced viral load, it is presumable that depletion of CK2 transcripts also could cause similar effect. In order to test this, in the second approach, WNV release was evaluated under the conditions where expression of CK2 subunits was knocked out. Cellular CK2 was knocked out by using siRNA molecules that specifically target CK2α and CK2β transcripts. siRNA-CK2α and siRNA-CK2β molecules were used to deplete cellular transcripts of CK2. 293 cells were infected with infectious WNV followed by the treatment with either siRNA control molecules or siRNA-CK2α or siRNA-CK2β molecules. Release of WNV was monitored from these plates. […] We also observed severe impairment of capsid phosphorylation in the pulse-chase studies under the influence of siRNA molecules.

[3] = test system: CK2-mediated phosphorylation of WNV C in Vero cells; assay: In vivo 32P labeling and immunoprecipitation of WNV C from transfected cells under DRB; type: cell-based, African green monkey; details: cells transfected with pcWNV C-His; DRB 100, 500 and 1000 μM; anti-His immunoprecipitation
Procedure: In vivo ^32P-Orthophosphate labeling and WNV C immunoprecipitation. In order to check whether Cp is phosphorylated in vivo also, Capsid-transfected cells were pulse-chased with […] and their lysates were analyzed for the detection of phosphorylated capsid proteins by Immunoprecipitation. HeLa cells were grown in DMEM medium supplemented with 10% FBS until they were subconfluent. The cells were transfected with WNV Cp constructs and DOTAP/DNA containing media were replaced after about 6-hours with media with/without […]. DBS was added to a final concentration of 0.1, 0.5 and 1.0 mM. The Control cells were treated with DMSO alone. Phospholabeling and immunoprecipitation of WNV CP were performed as described previously. […] WNV CP was precipitated with anti-His monoclonal antibody (Scil Diagnostics, Martinsried, Germany). […] The immunoprecipitated capsid proteins were eluted from the protein G-agarose by boiling them for 5 min and analyzed by SDS-PAGE, followed by autoradiography.
Subsequent to the identification and characterization of CK2-mediated phosphorylation of the rC in vitro, we wanted to study this phenomenon in vivo. […] The lysates from the matching controls that were not exposed to radioactivity, were analyzed separately for capsid expression. […]

[4] = test system: WNV; assay: WNV titers by plaque assay on Vero cells; type: cell-based, West Nile virus; details: DRB at different doses (FIG. 7B)
Procedure: The inhibited level of viral release indicates the siRNA-CK2 mediated effects are statistically significant.
Virus titration by plaque assay. Virus production was titered by plaque assays using Vero cells. For routine analysis, cells were seeded in 6-well (6×10^5 cells/well) or 12-well (3×10^5 cells/well) plates in -MEM with 10% FBS for 3 h at 37° C. Medium was removed, serial dilutions of virus supernatants in -MEM with 2% FBS were added (0.30 ml/well for 6-well plates and 0.15 ml/well for 12-well plates), and the cells were incubated for 2 h at 37° C. […] Virus concentrations are determined as PFU per milliliter.
In the context of whole virus, we examined whether inhibition of cellular CK2 affects WN viral release. […] We harvested culture fluid at regular intervals, determined viral titre by routine Plaque assays and used them for infection assays. […] Forty-eight hours post infection, viral release was monitored by both plaque assays as well as ELISAs measuring the presence of […] using monoclonal anti E antibody. FIG. 6B depicts the release of viral molecules from WNV-infected cells as measured by ELISA using anti-E antibody. […] In order to test this, in the second approach, WNV release was evaluated under the conditions where expression of CK2 subunits was knocked out. […] Release of WNV was monitored from these plates. […]

[5] = molecular target: T1, recombinant CK2 (Homo sapiens, UniProt P68400); assay: In vitro CK2 kinase assay with recombinant WNV C as substrate; type: biochemical; details: 32P-ATP or 32P-GTP as donor; autoradiography
T1 construct: purchased Biomol Research Laboratories (Plymouth Meeting, Pa.)
T1 sequence (P68400 whole entry): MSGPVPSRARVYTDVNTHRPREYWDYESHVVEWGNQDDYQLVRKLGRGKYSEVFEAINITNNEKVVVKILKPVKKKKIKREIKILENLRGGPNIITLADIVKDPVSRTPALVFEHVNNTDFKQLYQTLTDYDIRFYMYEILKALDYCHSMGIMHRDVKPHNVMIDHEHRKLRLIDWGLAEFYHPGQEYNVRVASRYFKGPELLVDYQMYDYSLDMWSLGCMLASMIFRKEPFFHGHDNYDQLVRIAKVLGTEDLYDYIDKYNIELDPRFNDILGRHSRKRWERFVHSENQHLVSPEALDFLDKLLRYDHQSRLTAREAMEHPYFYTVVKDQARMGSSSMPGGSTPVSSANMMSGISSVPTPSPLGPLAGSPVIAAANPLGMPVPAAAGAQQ
T1 sequence (P67870 whole entry partner): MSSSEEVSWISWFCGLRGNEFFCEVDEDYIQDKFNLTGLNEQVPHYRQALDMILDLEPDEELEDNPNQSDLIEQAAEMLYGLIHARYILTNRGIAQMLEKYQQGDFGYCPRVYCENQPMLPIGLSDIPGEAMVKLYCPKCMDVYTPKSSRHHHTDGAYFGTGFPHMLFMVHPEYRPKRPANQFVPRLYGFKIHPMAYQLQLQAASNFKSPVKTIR
Procedure: In vitro protein kinase assays. In vitro phosphorylation assays were routinely done with the recombinant Cp proteins with the recombinant CK2 (Biomol, Pa.) in a 20 μl-reaction volume. Reaction mixtures (20 μL) contained 25 mM Hepes, pH 7.4, 2 mM MnCl2 or 5 mM MgCl2, 1.6 μCi of -^32P-GTP or […] (Amersham Pharmacia Biotech), and 0.5 to 1 μg of purified His-tagged WNV Cp as a substrate. Histone 1B (Calbiochem) protein was used as positive control. The phosphorylation reaction was started by the addition of ^32P-ATP or ^32P-GTP and the reaction was carried out for 30 min at 30 C. The kinase assays were arrested by the addition of 20 μl of SDS-sample buffer and the reaction mixtures were boiled for five minutes. Phosphorylated proteins were separated in SDS PAGE and proteins ere visualized by autoradiography.
Purified rC fractions from E. coli cells (M15[pREP4+pQE-WNV C]) were subjected to subsequent kinase assays. Using purified CK2 enzyme, in vitro assay was performed with ^32P-ATP as a phosphate donor to examine possible role of CK2 in the phosphorylation of WNV C. […] CK2 is unique among protein kinases in its ability to use both ATP and GTP as phosphoryl group donors. Another biochemical property of CK2 that makes it different from other kinases is its high sensitivity to inhibition by heparin.

Compound | level of capsid in the culture fluid [1] | viral release ([2]; DRB 5 uM) | viral release ([2]; DRB 10 uM) | viral release ([2]; DRB 50 uM) | in vivo phosphorylation of WNV C [3] | WNV replication and release into culture medium by plaque assay [4] | heparin concentration at which the ability of CK2 to phosphorylate C was adversely affected [5] | phosphorylation of C by CK2 in vitro [5]
OC[C@H]1O[C@@H](n2cnc3cc(Cl)c(Cl)cc32)[C@H](O)[C@@H]1O [DRB, 5,6-Dichloro-1-b-D-ribofuranosylbenzimidazole] | significantly reduced the level of capsid from the culture fluid | significantly reduces viral release | reduced by almost one fold | completely effective at blocking viral release | severely inhibited; also recorded: specifically blocks the phosphorylation of capsid; also recorded: adversely inhibited | dose dependent |  | 
heparin |  |  |  |  |  |  | above 10 uM | severely inhibited; also recorded: severely impaired in a dose dependent manner
